Values quoted from earlier work, collected in US20190203187A1, “CHEMILUMINESCENT WETNESS INDICATOR FOR ABSORBENT PRODUCTS” (International Paper Company, priority 2014, published 2019).

Key:
Renilla Luciferase = molecular target: T1, Renilla Luciferase (Renilla reniformis, UniProt P27652)
T1 sequence (P27652 1-311): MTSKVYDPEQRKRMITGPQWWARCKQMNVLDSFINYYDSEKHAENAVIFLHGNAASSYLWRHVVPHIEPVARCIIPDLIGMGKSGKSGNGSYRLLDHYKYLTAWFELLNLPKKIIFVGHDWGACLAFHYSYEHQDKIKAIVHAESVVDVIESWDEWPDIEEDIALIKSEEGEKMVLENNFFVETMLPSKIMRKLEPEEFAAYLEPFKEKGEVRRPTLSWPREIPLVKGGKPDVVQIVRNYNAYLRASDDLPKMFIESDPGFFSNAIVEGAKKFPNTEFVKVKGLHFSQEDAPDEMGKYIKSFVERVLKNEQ

[1] = test system: Gaussia luciferase (Gluc)
apoaequorin = molecular target: T2, apoaequorin (Aequorea victoria, UniProt P07164); details: for luminescence intensity relative to coelenterazine (native form): coelenterazine-apoaequorin (aequorin) complex
T2 sequence (P07164 8-196): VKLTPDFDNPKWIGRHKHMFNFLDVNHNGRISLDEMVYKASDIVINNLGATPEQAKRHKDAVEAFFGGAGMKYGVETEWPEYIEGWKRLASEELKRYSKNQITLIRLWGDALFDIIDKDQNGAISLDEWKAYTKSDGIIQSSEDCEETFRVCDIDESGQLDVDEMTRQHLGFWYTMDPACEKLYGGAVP

Compound | quality as substrate for Renilla luciferase (Renilla Luciferase) | luminescence intensity relative to coelenterazine (native form) (apoaequorin) | also measured
O=c1c(Cc2ccccc2)nc2c(Cc3ccccc3)[nH]c(-c3ccccc3)cn1-2 [coelenterazine 400a, coelenterazine 400a (2-2′(4-dehydroxy)) coelenterazine] | good substrate |  | emission maximum (Renilla Luciferase; substrate for Renilla luciferase, BRET): 400 nm; oxidation with Gaussia luciferase [1]: does not oxidize well
Oc1ccc(Cc2nc3c(CC4CCCC4)nc(-c4ccc(O)cc4)cn3c2O)cc1 [coelenterazine cp] |  | 15 times | 
Oc1ccc(Cc2nc3c(Cc4ccccc4)nc4c(n3c2O)CCc2cc(O)ccc2-4)cc1 [coelenterazine e] |  |  | quality as substrate for apoaequorin (apoaequorin): poor substrates
Oc1ccc(-c2cn3c(O)c(Cc4ccc(F)cc4)nc3c(CC3CCCC3)n2)cc1 [coelenterazine fcp] | poor substrate | 135 times | 
coelenterazine f |  | 20 times | emission maximum longer than that of the native form (apoaequorin; coelenterazine-apoaequorin complex): about 8 nm
